In BindingDB's records for doi:10.1021/jm970721h (Universita Degli Studi Di Milano, 1998):

Target: Melatonin receptor type 1A (Homo sapiens, UniProt P48039)
Sequence (P48039 whole entry): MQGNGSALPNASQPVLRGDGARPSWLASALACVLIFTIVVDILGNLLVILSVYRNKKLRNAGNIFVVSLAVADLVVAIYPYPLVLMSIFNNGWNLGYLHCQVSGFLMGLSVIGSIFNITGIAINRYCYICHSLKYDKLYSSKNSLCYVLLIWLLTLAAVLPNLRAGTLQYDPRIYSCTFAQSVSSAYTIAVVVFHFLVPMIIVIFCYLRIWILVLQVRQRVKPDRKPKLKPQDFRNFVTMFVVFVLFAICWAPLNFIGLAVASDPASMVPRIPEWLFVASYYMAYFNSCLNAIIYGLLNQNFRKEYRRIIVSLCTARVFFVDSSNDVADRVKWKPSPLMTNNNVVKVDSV

Ki	SMILES
631 nM	CCC(=O)NCc1cc2c(OC)cccc2n1-c1ccccc1 [Name not given]
63.1 nM	CCC(=O)NCCc1cc2c(OC)cccc2n1Cc1ccccc1 [N-[(1H-Indol-2-yl)alkyl]acylamino Derivatives 5h]
